Experimental data taken from ChEMBL document CHEMBL1151586, “Design and synthesis of 10-oxo derivative of N-cyclopropylmethyl ()-6-acetylthiodihydro-normorphine, a potentially -selective opioid receptor ligand” (Bioorg Med Chem Lett, 1995).

What was measured:
Cavia porcellus [1] = organism: Cavia porcellus; experiment: Inhibition of the twitch response of the guinea pig longitudinal muscle strip to electrical stimulation in a concentration-dependent manner; format: functional, Muscle tissue
Cavia porcellus [2] = organism: Cavia porcellus; experiment: Inhibition of the twitch response of the guinea pig ileal strip to electrical stimulation; format: functional; conditions: read-out: pA2 (converted)

| Structure (SMILES) | pD2 (Cavia porcellus [1]) | Kb (Cavia porcellus [2]) |
| --- | --- | --- |
| CC(=O)Oc1ccc2c3c1O[C@H]1[C@H](SC(C)=O)CCC4[C@@H](C2=O)N(CC2CC2)CC[C@@]341 (some centres undefined) | 9.03 M | 0.0355 nM |
| CN1CC[C@]23c4c5ccc(O)c4O[C@H]2[C@@H](O)C=C[C@H]3[C@H]1C5 [MORPHINE] | 7.23 M | – |
| CC(=O)Oc1ccc2c3c1O[C@H]1[C@H](SC(C)=O)C=CC4[C@@H](C2)N(CC2CC2)CC[C@@]341 (some centres undefined) | 8.4 M | – |
